Measurements: paper PMC3363478, “Pharmacokinetics of micafungin in patients with severe burn injuries” (Critical Care, 2012)
Numbered stars: 1 amine (or outer) side, 2 acyl side, 3 side chain; on linkers, the order of the positions; unused ones are H or OH. Bridge positions count the residues as written; N and C are the ends. Square brackets hold non-standard residues; d marks the D form. Peptide text beside a SMILES is read from it. * marks the point of attachment. hTyr(3S-OH,4S-OH,3'-OSO3H) = N[C@H](C(=O)O)[C@H](O)[C@@H](O)c1ccc(O)c(OS(=O)(=O)O)c1; Orn(4R-OH,5R-OH) = O=C([C@H](C[C@@H](O)[C@@H](O)N[*:3])N[*:1])[*:2]; Pro(3S-OH,4S-Me) = C[C@H]1CN[C@H](C(=O)O)[C@H]1O; X1 = CCCCCOc1ccc(-c2cc(-c3ccc(C(=O)*)cc3)no2)cc1; Gln(3R-OH) = NC(=O)C[C@@H](O)[C@H](N)C(=O)O; Hyp = O=C(O)[C@@H]1C[C@@H](O)CN1

Columns and labels:
[1] = MCFG concentrations in the burn eschar of severe burn patients; type: in vivo, human; conditions: patients with severe burn injuries; conclusion in words
Protocol: Eight severe burn patients within 14 days after injuries (M:F = 5:3, 19 to 85 years old, 35 to 85% total body surface area) were treated with MCFG (200 to 300 mg, 3.45 to 4.49 mg/kg) once daily by intravenous infusion over 1 hour. The MCFG concentrations in the plasma at the end of the initial administration of MCFG (P1), just before the second dosing (T1), at the end of the fourth dosing (P4), and just before the fifth dosing (T4) were determined, and were compared with the reported values in health volunteers. MCFG concentrations in the burn eschar at T1 and T4 were also measured.

[2] = cited from earlier work
Protocol: The plasma concentrations of MCFG per dose normalized with body weight (C/D) at P1, T1, P4, and T4 were 1.37 to 6.28, 0.51 to 1.38, 3.20 to 6.46, and 0.65 to 2.18 (μg/ml)/(mg/kg), respectively, indicating marked interindividual differences. […] The MCFG concentrations in the burn eschar of three patients at T1 and T4 were <0.1 to 3.98 and 1.10 to 14.81 μg/ml, respectively. Most of MCFG concentrations in the plasma and burn eschar were higher than the reported MIC90 of MCF ...

In the case of `CCCCCOc1ccc(-c2cc(-c3ccc(C(=O)N[C@H]4C[C@@H](O)[C@@H](O)NC(=O)[C@@H]5[C@@H](O)[C@@H](C)CN5C(=O)[C@H]([C@H](O)CC(N)=O)NC(=O)[C@H]([C@H](O)[C@@H](O)c5ccc(O)c(OS(=O)(=O)O)c5)NC(=O)[C@@H]5C[C@@H](O)CN5C(=O)[C@H]([C@@H](C)O)NC4=O)cc3)no2)cc1` [MCFG, Micafungin] (X1-[Orn(4R-OH,5R-OH)]T[Hyp][hTyr(3S-OH,4S-OH,3'-OSO3H)][Gln(3R-OH)][Pro(3S-OH,4S-Me)]; lactam 1-C), the “penetration into burn eschar” value [1] is listed as “capable of penetrating burn eschar”, the “plasma C/D at P1, reported value in healthy volunteers” value ([2]; P1 = end of the initial administration) is listed as 5.7 (μg/ml)/(mg/kg) and the “plasma C/D at T1, reported value in healthy volunteers” value ([2]; T1 = just before the second dosing) is listed as 1.3 (μg/ml)/(mg/kg). For the same molecule, the “plasma C/D at T4, reported value in healthy volunteers” value ([2]; T4 = just before the fifth dosing) was 2.1 (μg/ml)/(mg/kg).
